Results taken from patent US20260327211A1, “MODULATORS OF A POTASSIUM CHANNEL AND OF TRPV1 CHANNEL AND USES THEREOF” (Bsense Bio Therapeutics Ltd., priority 2023, published 2026).
Where “and” joins values, the source holds several entries; their conditions need not be identical. Equal entries are not always repeated. Where two headings read alike, the source gives them in different places.

Legend:
hTRPV1 = molecular target: T1, hTRPV1 (Homo sapiens, UniProt Q8NER1); assay: hTRPV1 dual activity electrophysiology, CHO cells co-expressing hKv7.2/3 and hTRPV1; type: cell-based
T1 construct: CDS of NM_080704.4, inserted into the multiple cloning site of pcDNA3.1(+); host or cells: CHO/hKv7.2/3

CYP2D6 = molecular target: T2, CYP2D6 (Homo sapiens, UniProt P10635); assay: CYP inhibition / time-dependent inhibition, CYP2D6_Dextromethorphan; type: in vitro ADME; conditions: role: inhibitor
T2 construct: pre-incubation of the human liver microsomes with the test compound; tissue Corning; host or cells: human liver microsomes
Method: (§1) The time-dependent inactivation potency of the test compound to CYP enzymatic activities was assessed by the pre-incubation of the human liver microsomes with the test compound in the presence and absence of NADPH, followed by the incubation with the discrete marker substrates, as follows.
(§2) Pre-incubation with human liver microsomes (HLMs): The TDI inactivation potency on CYP enzymatic activities was evaluated through pre-incubation with HLMs (Corning). A liver microsome mixture at a concentration of 0.1 mg/mL, and the test compound at 8 different concentrations (0, 0.05, 0.165, 0.5, 1.65, 5.0, 16.5, or 50.0 μM) was warmed at 37° C. for 10 minutes. Concurrently, a set of known time-dependent inactivators was also prepared in duplicate for comparison. Following this, NADPH (1.0 mM) was added to one group (Group 1), and an equal volume of potassium phosphate buffer to the second group (Group 2), marking the beginning of a 30-minute pre-incubation at 37° C.
(§3) Incubation: After pre-incubation, the marker substrate, or marker substrate plus NADPH was added to the mixture, thereby initiating the incubation. The duration of the incubation was dependent on the type of CYP isoform being evaluated. For example, with the CYP3A isoform, the mixture was incubated over 3 minutes utilizing midazolam as the marker substrate (2.0 μM), verapamil as the standard inactivator (3.5 μM).
(§4) Termination of Reaction: Following the incubation, ice-cooled acetonitrile containing the internal standard (IS) was added to halt the reactions. Metabolites generated from the marker substrates were then measured via LC-MS/MS, assessed based on peak area ratios of the analyte to IS.

opioid delta receptor = molecular target: T3, opioid delta receptor (Homo sapiens, UniProt P41143); assay: Functional selectivity panel, opioid delta receptor; type: biochemical
T3 construct: Eurofins DiscoverX, USA
Method: A broad panel of 78 recombinant targets was tested for pharmacologic activity in vitro through a variety of functional assays (Eurofins DiscoverX, USA), as part of the National Institute of Neurological Disorders and Stroke (NINDS) Preclinical Screening Platform for Pain (PSPP) program. The biological targets for the in vitro profiling have been selected based on avoiding opioid receptor stimulation and targets known to be associated with adverse events or targeted by drugs of abuse. […] For each test, a reference compound was evaluated at the target of interest as a positive control.

rats = assay: Hot plate (53° C.); type: in vivo, rat
Method: Hot Plate: Animals were placed on hot plate analgesia meter (IITC Life Science Inc., CA, USA) set to 53±1° C., and the time until the first escape response was observed was recorded. A response was considered when the animals lifted or licked their leg or performed kicking behavior.

[1] = CYP inhibition / time-dependent inhibition, CYP3A4_Midazolam; type: in vitro ADME, human; conditions: human, liver microsomes, role: inhibitor
Method: as §1, §2, §3, §4

Rat hepatocyte stability = type: in vitro ADME; conditions: hepatocytes; for half-life: read-out: Hepatocytes (rat) T1/2
[2] = Dual hTRPV1 / Dual Expressing CHO, CAP IC50, Kv7.2/3 co-expressed and activated, capsaicin

T1 sequence (Q8NER1 whole entry): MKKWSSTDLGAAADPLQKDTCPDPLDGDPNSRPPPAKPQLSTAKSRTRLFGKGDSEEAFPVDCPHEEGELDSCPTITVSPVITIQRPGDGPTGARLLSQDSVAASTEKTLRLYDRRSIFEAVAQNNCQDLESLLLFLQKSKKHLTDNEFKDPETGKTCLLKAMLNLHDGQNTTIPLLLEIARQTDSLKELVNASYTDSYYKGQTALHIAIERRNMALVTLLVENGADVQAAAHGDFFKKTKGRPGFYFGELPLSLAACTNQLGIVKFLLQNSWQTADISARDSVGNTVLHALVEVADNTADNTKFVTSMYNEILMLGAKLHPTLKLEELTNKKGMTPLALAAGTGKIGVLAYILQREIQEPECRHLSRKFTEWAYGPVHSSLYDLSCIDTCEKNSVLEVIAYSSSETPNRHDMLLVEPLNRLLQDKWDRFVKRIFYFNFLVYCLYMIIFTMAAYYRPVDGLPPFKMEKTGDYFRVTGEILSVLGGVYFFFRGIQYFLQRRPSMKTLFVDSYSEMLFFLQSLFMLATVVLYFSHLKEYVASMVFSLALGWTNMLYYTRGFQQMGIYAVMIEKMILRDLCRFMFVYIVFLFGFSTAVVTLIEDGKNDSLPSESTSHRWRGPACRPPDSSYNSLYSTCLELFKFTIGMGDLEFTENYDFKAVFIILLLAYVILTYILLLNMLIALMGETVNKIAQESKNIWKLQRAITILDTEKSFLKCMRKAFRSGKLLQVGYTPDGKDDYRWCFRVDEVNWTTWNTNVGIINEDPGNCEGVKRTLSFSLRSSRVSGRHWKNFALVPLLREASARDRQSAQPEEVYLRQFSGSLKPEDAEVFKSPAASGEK
T2 sequence (P10635 whole entry): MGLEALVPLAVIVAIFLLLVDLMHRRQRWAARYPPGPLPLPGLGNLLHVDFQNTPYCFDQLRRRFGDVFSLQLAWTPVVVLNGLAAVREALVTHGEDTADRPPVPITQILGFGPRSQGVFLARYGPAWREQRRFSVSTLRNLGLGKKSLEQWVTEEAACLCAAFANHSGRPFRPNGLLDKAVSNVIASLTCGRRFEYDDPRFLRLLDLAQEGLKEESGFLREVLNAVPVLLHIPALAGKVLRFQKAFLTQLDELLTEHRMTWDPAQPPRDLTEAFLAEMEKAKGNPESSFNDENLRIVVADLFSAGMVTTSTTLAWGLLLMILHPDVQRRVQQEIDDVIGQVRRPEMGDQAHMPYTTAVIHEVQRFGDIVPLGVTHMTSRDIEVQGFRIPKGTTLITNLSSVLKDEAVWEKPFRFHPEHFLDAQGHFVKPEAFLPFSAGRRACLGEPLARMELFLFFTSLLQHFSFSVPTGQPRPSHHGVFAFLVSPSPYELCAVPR
T3 sequence (P41143 whole entry): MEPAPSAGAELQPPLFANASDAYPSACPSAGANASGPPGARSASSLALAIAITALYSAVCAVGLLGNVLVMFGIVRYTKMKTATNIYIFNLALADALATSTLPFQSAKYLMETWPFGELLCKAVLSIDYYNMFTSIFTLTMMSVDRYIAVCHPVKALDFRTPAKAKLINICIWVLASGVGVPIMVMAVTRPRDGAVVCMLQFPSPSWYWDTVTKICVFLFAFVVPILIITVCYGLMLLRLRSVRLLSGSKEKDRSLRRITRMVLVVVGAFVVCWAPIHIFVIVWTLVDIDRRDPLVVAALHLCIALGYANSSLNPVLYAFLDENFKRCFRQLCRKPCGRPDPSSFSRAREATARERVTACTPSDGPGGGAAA

O=C(Cc1cc(-n2cc(C(F)(F)F)c3cc(Cl)cc(Cl)c32)ncn1)NCCO [Compound 843]
IC50 (hTRPV1; [2]): 0.528 nM

O=C(Cc1nccc(-n2cc(Cl)c3cc(Cl)cc(Cl)c32)n1)NC1COCC1O (stereo not drawn) [Compound 760]
IC50 (CYP2D6; Table 9, read-out: CYP inhibition IC50 CYP2D6): > 50000 nM | Effect on Opioid-delta (opioid delta receptor; up to 10 micromolar): no effect | Hot-plate response (rats; up to 300 mg/kg oral): displayed safety potential at up to 300 mg/kg oral dosing | IC50 ([1]; Table 9, substrate midazolam, read-out: CYP inhibition IC50 CYP3A-Midazolam): > 50000 nM | inhibition at 100 µM (hTRPV1; CHO, read-out: hTRPV1 current inhibition): 46 ± 13.7% | IC50 (hTRPV1; [2]): 0.201 nM | IC50 (hTRPV1; IC50 of hTRPV1 current inhibition in CHOs with both targets co-expressed and activated, EP): ~0.1 nM

O=C(Cc1cncc(-n2cc(Cl)c3cc(Cl)cc(Cl)c32)c1)N[C@@H]1COC[C@H]1O [Compound 661]
IC50 (CYP2D6; (+)NADPH pre-incubation, substrate dextromethorphan, read-out: IC50 (+)NADPH CYP2D6_Dextromethorphan): 31700 nM | IC50 (CYP2D6; (−)NADPH pre-incubation, substrate dextromethorphan, read-out: IC50 (−)NADPH CYP2D6_Dextromethorphan): 28500 nM | IC50 (opioid delta receptor): 10000 nM | Hot plate escape latency (rats; 20 and 50 mg/kg PO, 2-10 hours post-dose): no significant effect on escape latency | CLint scaled (Rat hepatocyte stability): 1140 mL/min/kg | half-life (Rat hepatocyte stability): 5.7 min | IC50 ([1]; (+)NADPH pre-incubation, substrate midazolam 2.0 μM, read-out: IC50 (+)NADPH CYP3A4_Midazolam): 19500 nM | IC50 ([1]; (−)NADPH pre-incubation, substrate midazolam 2.0 μM, read-out: IC50 (−)NADPH CYP3A4_Midazolam): 30500 nM | TRPV1 inhibition, dual-expressing CHO (hTRPV1; 0.01 nM): mild inhibition | TRPV1 inhibition, dual-expressing CHO (hTRPV1; 0.1 nM): inhibited | IC50 (hTRPV1; [2]): 0.07 nM and 0.068 nM | Potency in dual-expressing CHO vs CHO expressing only TRPV1 (hTRPV1; cho cells): > 200,000 fold

O=C(Cc1ccnc(-n2cc(Cl)c3cc(Cl)cc(Cl)c32)n1)N[C@@H]1COC[C@H]1O [Compound 820]
IC50 (hTRPV1; [2]): 48 nM

O=C(Cc1cc(-n2cc(Cl)c3cc(Cl)cc(Cl)c32)ccc1F)NCCO [Compound 627]
CLint scaled (Rat hepatocyte stability): 514 mL/min/kg | half-life (Rat hepatocyte stability): 12.6 min | IC50 (hTRPV1; [2]): 0.26 nM and 0.27 nM
